Test results reported in US10570184B2, “GLP-1/glucagon receptor co-agonists for medical use” (Novo Nordisk A/S, priority 2014, dated 2020).
Starred links: 1 amine or outer side, 2 acyl side, 3 side chain; linkers in the order of their positions; H or OH if unused. Non-standard residues stand in square brackets, D forms with d. Residues, ends and D or L forms follow the SMILES beside them. Groups on a side chain read outwards from the residue. *: point of attachment. C18 diacid = O=C(O)CCCCCCCCCCCCCCCCC(=O)*; γGlu = O=C(O)[C@H](CCC(=O)[*:2])N[*:1]; Ac4c = NC1(C(=O)O)CCC1; AEEA = NCCOCCOCC(=O)O; Aib = CC(C)(N)C(=O)O

How the values were obtained:
human GLP-1 receptor = target: T1, human GLP-1 receptor (Homo sapiens, UniProt P43220); assay: Assay (I)(a) GLP-1 receptor activation, CRE luciferase reporter gene assay in BHK cells; format: cell-based; conditions: without presence of serum albumin; read-out: GLP-1R EC50 (pM) [Assay (I)(a)]
T1 construct: expressed in transfected cells; host or cells: membranes of BHK cells (parent BHKTS13), clone FCW467-12A
T1 sequence (P43220 24-463): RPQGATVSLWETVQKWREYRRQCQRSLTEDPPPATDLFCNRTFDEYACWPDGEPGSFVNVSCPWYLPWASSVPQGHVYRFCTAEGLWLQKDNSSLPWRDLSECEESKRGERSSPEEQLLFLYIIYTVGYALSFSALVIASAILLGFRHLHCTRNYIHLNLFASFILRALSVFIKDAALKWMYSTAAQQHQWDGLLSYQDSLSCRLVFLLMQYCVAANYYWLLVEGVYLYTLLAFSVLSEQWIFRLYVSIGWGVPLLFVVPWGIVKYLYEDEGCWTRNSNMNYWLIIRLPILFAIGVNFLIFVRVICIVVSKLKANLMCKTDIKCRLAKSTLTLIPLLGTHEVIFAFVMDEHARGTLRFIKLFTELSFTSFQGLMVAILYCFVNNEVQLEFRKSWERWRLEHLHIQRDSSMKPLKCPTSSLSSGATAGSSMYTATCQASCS
Outline: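 Stable BHK clone expressing human GLP-1 receptor with CRE-driven firefly luciferase, 5×10EE3 cells/well in medium with 2% ovalbumin and 0.2% Pluronic F-68. Compounds at 1×10EE-13 to 1×10EE-6 M final, 3 h at 37° C.; luminescence read, EC50 (pM) from four-parameter fit.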

[1] = Assay (III) ThT fibrillation assay for physical stability; format: physicochemical; conditions: 250 μM in 10 mM HEPES buffer, 37° C., shaking 960 rpm
Outline: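 Glucagon derivative at 250 μM in 10 mM HEPES pH 7.5 with 1 μM ThT was incubated at 37 °C under 960 rpm orbital shaking. Fluorescence (ex 444/em 485 nm) was read every 20 min and fitted for lag time (t0−2τ) and kapp (1/τ). Recovery was soluble peptide after centrifugation/filtration, by RP-HPLC, as percent of initial.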

Row | Structure (SMILES) | EC50 (human GLP-1 receptor) [pM] | ThT Assay Lag time (h) [Assay (III), pH 7.5] [1] [h]
1 | CC[C@H](C)[C@H](NC(=O)[C@H](CC(C)C)NC(=O)[C@H](Cc1c[nH]c2ccccc12)NC(=O)[C@H](CCC(N)=O)NC(=O)[C@@H](NC(=O)[C@H](Cc1ccccc1)NC(=O)[C@H](CCC(=O)O)NC(=O)[C@H](CCCNC(=N)N)NC(=O)[C@H](C)NC(=O)[C@H](CCCNC(=N)N)NC(=O)[C@H](CCCNC(=N)N)NC(=O)[C@H](C)NC(=O)[C@H](CC(=O)O)NC(=O)[C@H](CC(C)C)NC(=O)[C@H](Cc1ccc(O)cc1)NC(=O)[C@H](CCCCN)NC(=O)[C@H](CO)NC(=O)[C@H](CC(C)C)NC(=O)[C@H](CC(=O)O)NC(=O)[C@H](CO)NC(=O)[C@@H](NC(=O)[C@H](Cc1ccccc1)NC(=O)[C@@H](NC(=O)CNC(=O)[C@H](CCC(N)=O)NC(=O)C(C)(C)NC(=O)[C@@H](N)Cc1c[nH]cn1)[C@@H](C)O)[C@@H](C)O)C(C)C)C(=O)N[C@@H](CO)C(=O)N[C@@H](CCCCNC(=O)CC[C@H](NC(=O)CC[C@H](NC(=O)COCCOCCNC(=O)COCCOCCNC(=O)CC[C@H](NC(=O)CCCCCCCCCCCCCCCCC(=O)O)C(=O)O)C(=O)O)C(=O)O)C(N)=O [Chem. 28, N^ε29-[(4S)-4-carboxy-4-[[(4S)-4-carboxy-4-[[2-[2-[2-[[2-[2-[2-[[(4S)-4-carboxy-4-(17-carboxyheptadecanoylamino)butanoyl]amino]ethoxy]ethoxy]acetyl]amino]ethoxy]ethoxy]acetyl]amino]butanoyl]amino]butanoyl]-[Aib2,Leu10,Ala16,Arg20,Glu21,Ile27,Ser28,Lys29]-Glucagon amide] (H-H[Aib]QGTFTSDLSKYLDARRAREFVQWLISK([γGlu-γGlu-AEEA-AEEA-γGlu-C18 diacid])-NH2; N-terminus assumed) | 3 | 45.0
2 | CC[C@H](C)[C@H](NC(=O)[C@H](CC(C)C)NC(=O)[C@H](Cc1c[nH]c2ccccc12)NC(=O)[C@H](CCCCNC(=O)COCCOCCNC(=O)COCCOCCNC(=O)CC[C@H](NC(=O)CC[C@H](NC(=O)CC[C@H](NC(=O)CCCCCCCCCCCCCCCCC(=O)O)C(=O)O)C(=O)O)C(=O)O)NC(=O)[C@@H](NC(=O)[C@H](Cc1ccccc1)NC(=O)[C@H](CCC(=O)O)NC(=O)[C@H](CCCNC(=N)N)NC(=O)[C@H](C)NC(=O)[C@H](CCCNC(=N)N)NC(=O)[C@H](CCCNC(=N)N)NC(=O)[C@H](C)NC(=O)[C@H](CC(=O)O)NC(=O)[C@H](CC(C)C)NC(=O)[C@H](Cc1ccc(O)cc1)NC(=O)[C@H](CCCCN)NC(=O)[C@H](CO)NC(=O)[C@H](Cc1ccc(O)cc1)NC(=O)[C@H](CC(=O)O)NC(=O)[C@H](CO)NC(=O)[C@@H](NC(=O)[C@H](Cc1ccccc1)NC(=O)[C@@H](NC(=O)CNC(=O)[C@H](CCC(N)=O)NC(=O)C(C)(C)NC(=O)[C@@H](N)Cc1c[nH]cn1)[C@@H](C)O)[C@@H](C)O)C(C)C)C(=O)N[C@@H](CO)C(=O)N[C@H](C(N)=O)[C@@H](C)O [Chem. 4, N^ε24-[2-[2-[2-[[2-[2-[2-[[(4S)-4-carboxy-4-[[(4S)-4-carboxy-4-[[(4S)-4-carboxy-4-(17-carboxyheptadecanoylamino)butanoyl]amino]butanoyl]amino]butanoyl]amino]ethoxy]ethoxy]acetyl]amino]ethoxy]ethoxy]acetyl]-[Aib2,Ala16,Arg20,Glu21,Lys24,Ile27,Ser28]-Glucagon amide] (H-H[Aib]QGTFTSDYSKYLDARRAREFVK([AEEA-AEEA-γGlu-γGlu-γGlu-C18 diacid])WLIST-NH2; N-terminus assumed) | 3 | 
3 | CC[C@H](C)[C@H](NC(=O)[C@H](CC(C)C)NC(=O)[C@H](Cc1c[nH]c2ccccc12)NC(=O)[C@H](CCC(N)=O)NC(=O)[C@@H](NC(=O)[C@H](Cc1ccccc1)NC(=O)[C@H](CC(=O)O)NC(=O)[C@H](CCCNC(=N)N)NC(=O)[C@H](C)NC(=O)[C@H](CCCNC(=N)N)NC(=O)[C@H](CCCNC(=N)N)NC(=O)[C@H](CO)NC(=O)[C@H](CCC(=O)O)NC(=O)[C@H](CC(C)C)NC(=O)[C@H](Cc1ccc(O)cc1)NC(=O)[C@H](CCCNC(=N)N)NC(=O)[C@H](CO)NC(=O)[C@H](Cc1ccc(O)cc1)NC(=O)[C@H](CC(=O)O)NC(=O)[C@H](CO)NC(=O)[C@@H](NC(=O)[C@H](Cc1ccccc1)NC(=O)[C@@H](NC(=O)CNC(=O)[C@H](CCC(N)=O)NC(=O)C1(NC(=O)[C@@H](N)Cc2c[nH]cn2)CCC1)[C@@H](C)O)[C@@H](C)O)C(C)C)C(=O)N[C@@H](CCCCNC(=O)CC[C@H](NC(=O)COCCOCCNC(=O)CC[C@H](NC(=O)COCCOCCNC(=O)CC[C@H](NC(=O)COCCOCCNC(=O)CC[C@H](NC(=O)CC[C@H](NC(=O)CCCCCCCCCCCCCCCCC(=O)O)C(=O)O)C(=O)O)C(=O)O)C(=O)O)C(=O)O)C(=O)N[C@H](C(N)=O)[C@@H](C)O [Chem. 36, N^ε28-[(4S)-4-carboxy-4-[[2-[2-[2-[[(4S)-4-carboxy-4-[[2-[2-[2-[[(4S)-4-carboxy-4-[[2-[2-[2-[[(4S)-4-carboxy-4-[[(4S)-4-carboxy-4-(17-carboxyheptadecanoylamino)butanoyl]amino]butanoyl]amino]ethoxy]ethoxy]acetyl]amino]butanoyl]amino]ethoxy]ethoxy]acetyl]amino]butanoyl]amino]ethoxy]ethoxy]acetyl]amino]butanoyl]-[Acb2,Arg12,Glu15,Arg20,Ile27,Lys28]-Glucagon amide] (H-H[Ac4c]QGTFTSDYSRYLESRRARDFVQWLIK([γGlu-AEEA-γGlu-AEEA-γGlu-AEEA-γGlu-γGlu-C18 diacid])T-NH2; N-terminus assumed) | 4 | 3.7
4 | CC[C@H](C)[C@H](NC(=O)[C@H](CC(C)C)NC(=O)[C@H](Cc1c[nH]c2ccccc12)NC(=O)[C@H](CCC(N)=O)NC(=O)[C@@H](NC(=O)[C@H](Cc1ccccc1)NC(=O)[C@H](CC(=O)O)NC(=O)[C@H](CCC(N)=O)NC(=O)[C@H](C)NC(=O)[C@H](CCCNC(=N)N)NC(=O)[C@H](CCCNC(=N)N)NC(=O)[C@H](C)NC(=O)[C@H](CC(=O)O)NC(=O)[C@H](CC(C)C)NC(=O)[C@H](Cc1ccc(O)cc1)NC(=O)[C@H](CCCCN)NC(=O)[C@H](CO)NC(=O)[C@H](CC(C)C)NC(=O)[C@H](CC(=O)O)NC(=O)[C@H](CO)NC(=O)[C@@H](NC(=O)[C@H](Cc1ccccc1)NC(=O)[C@@H](NC(=O)CNC(=O)[C@H](CCC(N)=O)NC(=O)C(C)(C)NC(=O)[C@@H](N)Cc1c[nH]cn1)[C@@H](C)O)[C@@H](C)O)C(C)C)C(=O)N[C@@H](CCCCNC(=O)COCCOCCNC(=O)COCCOCCNC(=O)CC[C@H](NC(=O)CC[C@H](NC(=O)CC[C@H](NC(=O)CCCCCCCCCCCCCCCCC(=O)O)C(=O)O)C(=O)O)C(=O)O)C(=O)N[C@H](C(N)=O)[C@@H](C)O [Chem. 7, N^ε28-[2-[2-[2-[[2-[2-[2-[[(4S)-4-carboxy-4-[[(4S)-4-carboxy-4-[[(4S)-4-carboxy-4-(17-carboxyheptadecanoylamino)butanoyl]amino]butanoyl]amino]butanoyl]amino]ethoxy]ethoxy]acetyl]amino]ethoxy]ethoxy]acetyl]-[Aib2,Leu10,Ala16,Ile27,Lys28]-Glucagon amide] (H-H[Aib]QGTFTSDLSKYLDARRAQDFVQWLIK([AEEA-AEEA-γGlu-γGlu-γGlu-C18 diacid])T-NH2; N-terminus assumed) | 2 | 
